Our source for the tumor volume values is patent publication US20070190068A1, “uPAR-binding molecule-drug conjugates and uses thereof” (priority 2005, published 2007).

In the test the test system is MDA-231 GFP tumors. Kind of test: Human breast carcinoma MDA-MB-231 GFP xenograft in nude mice (tumor volume). Format: in vivo, BALB/c (nu/nu) mice. The note with it: week 14. The text has this: FIG. 5. Preliminary dose defining study. Effect of anti-human uPAR IgG (Mab 3936), doxorubicin, Mab 3936-Doxorubicin conjugate on xenograft human breast cancer tumor model in nude mice (MDA-231 GFP tumors). Tumor volume (mm^3) from week 8 to week 11 post tumor cell inoculation were compared. Bar graph from left to right: animals received control serum, doxorubicin via intravenous (DOX I.V.), doxorubicin via […] (DOX I.P.), Mab 3936 (3936) or Mab 3936-doxorubicin conjugate (3936+DOX) (2 mg/animal).
FIG. 6. Effect of anti-human uPAR IgG (Mab 3936), doxorubicin, Mab 3936-doxorubicin conjugate on xenograft human breast cancer tumor model in nude mice (MDA-231 GFP tumors). Tumor volume (mm^3) from week 5 to week 15 post tumor cell inoculation were compared. Bar graph from left to right: animals received control serum, doxorubicin via intravenous, Mab 3936, doxorubicin via […], and Mab 3936-doxorubicin conjugate.
FIG. 7. […]
For xenograft studies, 4 to 6 weeks old BALB/c (nu/nu) female mice were obtained from Charles River Inc. The mice weighed an average of 20 grams. […] The tumor mass was measured in two dimensions with calipers, twice a week.
Throughout the course of these studies, all control and experimental mice were monitored for any noticeable side effects. […]
On the technique in general: Xenograft models place foreign cells or tissue in a host animal.

Compound `COc1cccc2c1C(=O)c1c(O)c3c(c(O)c1C2=O)C[C@@](O)(C(=O)CO)C[C@@H]3O[C@H]1C[C@H](N)[C@H](O)[C@H](C)O1` [doxorubicin] registered a tumor volume of 330 mm^3.
